Laboratory results from PubChem BioAssay AID1845215 (Molecular Pharmacology Branch, DTP, NCI, 2023).
Where “and” joins values, the source holds several entries; their conditions need not be identical. Equal values may be shown once. Calls of active or inactive are those of the source. The calls were made as follows: active = viability on the fitted dose curve at most 10% of control; inactive = the rest.

Test system: SW 1271 complex tumor spheroid viability
Experiment: Anticancer human tumor SW 1271 cell line growth inhibition;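 as to IC50: spheroids exposed to agents for seven days before readout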;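 as to viability, T/C: spheroids exposed to agents for seven days before readout; percent of DMSO vehicle control luminescence so 100% = vehicle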
Conditions: for viability, T/C: stronger effect = lower value
Outline: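 Complex tumor spheroids combined malignant cells with endothelial cells and mesenchymal stem cells. DNA-damaging drugs and DNA repair inhibitors were tested alone and in combination, at half-log dilutions down from clinical Cmax (top 10 microM if Cmax unknown), 0.25% DMSO final.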

[1] = curve of first compound, second compound 1 µM
[2] = curve of first compound, second compound 3.16 µM
[3] = curve of first compound, second compound 10 µM
[4] = curve of first compound, second compound 31.6 µM
[5] = curve of first compound, second compound 100 µM

`CC(C)n1c(=O)n(C)c2cnc3cc(F)c(-c4ccc(OCCCN5CCCCC5)nc4)cc3c21` + Cn1nnc2c(C(N)=O)ncn2c1=O gave an IC50 [1] greater than 10000 nM, an IC50 [2] greater than 10000 nM and an IC50 [3] of 7490 nM. The IC50 [4] was 4870 nM, the IC50 [5] was 1040 nM and the viability, T/C (second compound 1 µM, first compound 0.0316 µM) was 99.6%. It also gave a viability, T/C (second compound 1 µM, first compound 0.1 µM) of 90.9%, a viability, T/C (second compound 1 µM, first compound 0.316 µM) of 93.2% and a viability, T/C (second compound 1 µM, first compound 1 µM) of 101%. For the same molecule, the viability, T/C (second compound 1 µM, first compound 3.16 µM) was 99.6%, the viability, T/C (second compound 1 µM, first compound 10 µM) was 54.7% and the viability, T/C (second compound 3.16 µM, first compound 0.0316 µM) was 101%. For the same molecule, the viability, T/C (second compound 3.16 µM, first compound 0.1 µM) was 92.5%, the viability, T/C (second compound 3.16 µM, first compound 0.316 µM) was 98.8% and the viability, T/C (second compound 3.16 µM, first compound 1 µM) was 102%. For the same molecule, the viability, T/C (second compound 3.16 µM, first compound 3.16 µM) was 88.4%, the viability, T/C (second compound 3.16 µM, first compound 10 µM) was 50.9% and the viability, T/C (second compound 10 µM, first compound 0.0316 µM) was 87.1%. It also gave a viability, T/C (second compound 10 µM, first compound 0.1 µM) of 97.7%, a viability, T/C (second compound 10 µM, first compound 0.316 µM) of 94.3% and a viability, T/C (second compound 10 µM, first compound 1 µM) of 79.9%. For the same molecule, the viability, T/C (second compound 10 µM, first compound 3.16 µM) was 75.6%, the viability, T/C (second compound 10 µM, first compound 10 µM) was 41.6% and the viability, T/C (second compound 31.6 µM, first compound 0.0316 µM) was 93%. The viability, T/C (second compound 31.6 µM, first compound 0.1 µM) was 84.5%, the viability, T/C (second compound 31.6 µM, first compound 0.316 µM) was 86.1% and the viability, T/C (second compound 31.6 µM, first compound 1 µM) was 76.8%. It also gave a viability, T/C (second compound 31.6 µM, first compound 3.16 µM) of 63.5%, a viability, T/C (second compound 31.6 µM, first compound 10 µM) of 29.5% and a viability, T/C (second compound 100 µM, first compound 0.0316 µM) of 70.5%. For the same molecule, the viability, T/C (second compound 100 µM, first compound 0.1 µM) was 69.6%, the viability, T/C (second compound 100 µM, first compound 0.316 µM) was 64.2% and the viability, T/C (second compound 100 µM, first compound 1 µM) was 51.5%. The viability, T/C (second compound 100 µM, first compound 3.16 µM) was 31% and the viability, T/C (second compound 100 µM, first compound 10 µM) was 24.9%.

`CNCc1ccc(-c2cc(-c3nc(-c4ccc(S(=O)(=O)C(C)C)cc4)cnc3N)on2)cc1` + Cn1nnc2c(C(N)=O)ncn2c1=O was tested, and the IC50 [1] was 213 nM, the IC50 [2] was 170 nM and the IC50 [3] was 185 nM. The IC50 [4] was 174 nM, the IC50 [5] was 52.4 nM and the viability, T/C (second compound 1 µM, first compound 0.00949 µM) was 105%. The viability, T/C (second compound 1 µM, first compound 0.03 µM) was 102%, the viability, T/C (second compound 1 µM, first compound 0.0949 µM) was 98.8% and the viability, T/C (second compound 1 µM, first compound 0.3 µM) was 29.5%. The viability, T/C (second compound 1 µM, first compound 0.949 µM) was 7.14%, the viability, T/C (second compound 1 µM, first compound 3 µM) was 0.1% and the viability, T/C (second compound 3.16 µM, first compound 0.00949 µM) was 109%. For the same molecule, the viability, T/C (second compound 3.16 µM, first compound 0.03 µM) was 106%, the outcome (second compound 3.16 µM, first compound 0.0949 µM) was “inactive” and the viability, T/C (second compound 3.16 µM, first compound 0.3 µM) was 23.8%. For the same molecule, the viability, T/C (second compound 3.16 µM, first compound 0.949 µM) was 7.34%, the viability, T/C (second compound 3.16 µM, first compound 3 µM) was 0.12% and the viability, T/C (second compound 10 µM, first compound 0.00949 µM) was 99.1%. It also gave a viability, T/C (second compound 10 µM, first compound 0.03 µM) of 105%, a viability, T/C (second compound 10 µM, first compound 0.0949 µM) of 89.7% and a viability, T/C (second compound 10 µM, first compound 0.3 µM) of 20.8%. It also gave a viability, T/C (second compound 10 µM, first compound 0.949 µM) of 5.82%, a viability, T/C (second compound 10 µM, first compound 3 µM) of 0.11% and a viability, T/C (second compound 31.6 µM, first compound 0.00949 µM) of 115%. For the same molecule, the viability, T/C (second compound 31.6 µM, first compound 0.03 µM) was 82.3%, the viability, T/C (second compound 31.6 µM, first compound 0.0949 µM) was 75.5% and the viability, T/C (second compound 31.6 µM, first compound 0.3 µM) was 17.5%. For the same molecule, the viability, T/C (second compound 31.6 µM, first compound 0.949 µM) was 37.5%, the viability, T/C (second compound 31.6 µM, first compound 3 µM) was 0.15% and the viability, T/C (second compound 100 µM, first compound 0.00949 µM) was 93.7%. It also gave a viability, T/C (second compound 100 µM, first compound 0.03 µM) of 69.8%, a viability, T/C (second compound 100 µM, first compound 0.0949 µM) of 29.5% and a viability, T/C (second compound 100 µM, first compound 0.3 µM) of 9.36%. It also gave a viability, T/C (second compound 100 µM, first compound 0.949 µM) of 29.7% and a viability, T/C (second compound 100 µM, first compound 3 µM) of 0.18%.

With `Cc1cc(C)c(CNC(=O)c2cc(-c3ccc(CN4CCOCC4)cc3)cc3c2cnn3C2CCCC2)c(=O)[nH]1` + COc1cc2c(cc1O)CCNC21CSC2c3c(OC(C)=O)c(C)c4c(c3C(COC1=O)N1C(O)C3Cc5cc(C)c(OC)c(O)c5C(C21)N3C)OCO4 the IC50 (curve of first compound, second compound 30 pM) was greater than 10000 nM, the IC50 (curve of first compound, second compound 94.9 pM) was 987 nM and the IC50 (curve of first compound, second compound 0.0003 µM) was less than 31.6 nM. For the same molecule, the IC50 (curve of first compound, second compound 0.000949 µM) was less than 31.6 nM, the IC50 (curve of first compound, second compound 0.003 µM) was less than 31.6 nM and the viability, T/C (second compound 30 pM, first compound 0.0316 µM) was 86.2%. For the same molecule, the viability, T/C (second compound 30 pM, first compound 0.1 µM) was 92.9%, the viability, T/C (second compound 30 pM, first compound 0.316 µM) was 90.4% and the viability, T/C (second compound 30 pM, first compound 1 µM) was 87.4%. For the same molecule, the viability, T/C (second compound 30 pM, first compound 3.16 µM) was 84.5%, the viability, T/C (second compound 30 pM, first compound 10 µM) was 66.2% and the viability, T/C (second compound 94.9 pM, first compound 0.0316 µM) was 59.6%. The viability, T/C (second compound 94.9 pM, first compound 0.1 µM) was 63.3%, the viability, T/C (second compound 94.9 pM, first compound 0.316 µM) was 66.6% and the viability, T/C (second compound 94.9 pM, first compound 1 µM) was 49.8%. The viability, T/C (second compound 94.9 pM, first compound 3.16 µM) was 40.7%, the viability, T/C (second compound 94.9 pM, first compound 10 µM) was 34.4% and the viability, T/C (second compound 0.0003 µM, first compound 0.0316 µM) was 32.9%. The viability, T/C (second compound 0.0003 µM, first compound 0.1 µM) was 35.7%, the viability, T/C (second compound 0.0003 µM, first compound 0.316 µM) was 34.1% and the viability, T/C (second compound 0.0003 µM, first compound 1 µM) was 30.3%. For the same molecule, the viability, T/C (second compound 0.0003 µM, first compound 3.16 µM) was 29.3%, the viability, T/C (second compound 0.0003 µM, first compound 10 µM) was 24% and the viability, T/C (second compound 0.000949 µM, first compound 0.0316 µM) was 2.96%. For the same molecule, the viability, T/C (second compound 0.000949 µM, first compound 0.1 µM) was 14.8%, the viability, T/C (second compound 0.000949 µM, first compound 0.316 µM) was 2.88% and the viability, T/C (second compound 0.000949 µM, first compound 1 µM) was 3.26%. For the same molecule, the viability, T/C (second compound 0.000949 µM, first compound 3.16 µM) was 1.94%, the viability, T/C (second compound 0.000949 µM, first compound 10 µM) was 1.96% and the viability, T/C (second compound 0.003 µM, first compound 0.0316 µM) was 0.23%. For the same molecule, the viability, T/C (second compound 0.003 µM, first compound 0.1 µM) was 0.24%, the viability, T/C (second compound 0.003 µM, first compound 0.316 µM) was 0.28% and the viability, T/C (second compound 0.003 µM, first compound 1 µM) was 0.25%. It also gave a viability, T/C (second compound 0.003 µM, first compound 3.16 µM) of 0.21% and a viability, T/C (second compound 0.003 µM, first compound 10 µM) of 0.29%.

In the case of `COc1cc(C)[nH]c(=O)c1CN1CCc2c(Cl)cc(C(OC)C3COC3)c(Cl)c2C1=O` (configuration not stated), the viability, T/C (compound 0.0316 µM) is reported as 98.5% and 98.1% and 104%, the viability, T/C (compound 0.1 µM) is reported as 101% and 92.7% and 98.5% and the viability, T/C (compound 0.316 µM) is reported as 102% and 86.8% and 91.5%. The viability, T/C (compound 1 µM) was 105% and 89.8% and 94.6%, the viability, T/C (compound 3.16 µM) was 94.8% and 79.1% and 95.3% and the viability, T/C (compound 10 µM) was 84% and 75.4% and 81.9%. It also gave an IC50 (curve of compound) greater than 10000 nM.
